Read-outs that look alike come from different tables or passages of the source.
Columns and labels:
[1] = test system: resistant green rice leafhopper (collected at Nakagawara); assay: Test 3: Effect on Resistant Green Rice Leafhopper (collected at Nakagawara); type: in vivo, Nephotettix cincticeps Uhler (Green rice leafhopper); conditions: Nephotettix cincticeps, 24 h, read-out: Mortality (%), Green Rice Leafhopper Collected at Nakagawara
Method in brief: (§1)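 Emulsifiable concentrate diluted to 100 or 20 ppm was sprayed, 3 ml per pot, onto hydroponic rice seedlings at 2–3 leaves. After air-drying, 10 female adults of the Nakagawara (resistant) or Chigasaki (sensitive) strain were released per caged pot. Mortality was counted at 24 h and averaged over three pots.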

[2] = test system: sensitive green rice leafhopper (collected at Chigasaki); assay: whole plant or invertebrate; type: in vivo; conditions: Nephotettix cincticeps, read-out: Mortality (%), Green Rice Leafhopper Collected at Chigasaki
Method in brief: as §1

two-spotted spider mite = assay: Test 6: Effect on Two-Spotted Spider mite Adults; type: in vivo; conditions: Tetranychus urticae; 100 ppm; adults; 24 hours; 25° C; read-out: Mortality (%)
Description: (§2) To a mixture of 20 parts of the compound of the present invention and 20 parts of Sorpol SM-200 (registered tradename for the product supplied by Toho Chemical Industrial Co., Ltd.) was added 60 parts of xylol, and the mixture was suffciently blended. The obtained emulsifiable concentrate was diluted at a predetermined concentration with distilled water, and the obtained dilution was used.
A kidney bean leaf disc perforated with a cork borer (15 mm in diameter) was placed on water-impregnated absorbent cotton (2 cm×2 cm), and 10 adults of two-spotted spider mite were set free. A chemical dilution having a concentration of 100 ppm was applied with an applicator in an amount of 3 ml.
The leaf disc-placed absorbent cotton was placed in a thermostat chamber maintained at 25° C. After 24 hours, the number of killed adults was counted and the mortality was calculated. The test was made on three leaf discs and the average value was calculated.

[3] = Test 9: Toxicity Test (acute oral toxicity, mice); conditions: mouse, in vivo, po
Description: A predetermined amount of a solution or suspension of a test compound in corn oil was orally administered to male mice having a body weight of 19 to 23 g (0.2 ml per 10 g of the body weight). After 7 days, the number of killed mice was counted and the influences on the mice were examined.

tobacco cutworm [4] = assay: Test 1: Effect on Tobacco Cutworm (leaf immersion), mortality after 24 hours; type: in vivo; conditions: second-instar larvae, 25° C
Method in brief: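 Sweet-potato leaves dipped 10 s in emulsifiable concentrate diluted to 100 or 20 ppm, air-dried, then exposed to second-instar larvae at 25 °C. Mortality counted after 24 h, averaged over three cups.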

diamond back moth = assay: Test 4: Effect on Diamond Back Moth; type: in vivo; conditions: Plutella
Method in brief: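 Compound formulated as an emulsifiable concentrate, diluted in water to 100 or 20 ppm and sprayed at 3 ml per cup onto cabbage leaves holding 10 third-instar larvae. Mortality counted after 24 hours; mean of three cups.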

green peach aphid = assay: Test 5: Effect on Green Peach Aphid; type: in vivo; conditions: Myzus persicae; 100 ppm; mortality class; 24 hours; read-out: Insecticidal Activity
Description: as §2
Seedlings (having 3 to 4 leaves) of an eggplant grown on a pot were inoculated with green peach aphids and the insects were allowed to grow. The number of the insects was counted. A chemical dilution having a concentration of 100 ppm, prepared in the same manner as described in Test 1, was applied with a spray gun at a rate of 10 ml per pot. Then, the pot was placed in a glass green house. After 24 hours, the number of living insects was counted and the mortality was calculated.
The test was made on three pots, and the average value was calculated. In Table 6, mark "A" indicates a mortality higher than 95%, mark "B" indicates a mortality of 80 to 95%, mark "C" indicates a mortality of 50 to 80%, and mark "D" indicates a mortality lower than 50%.

Test 8: Fish Toxicity = type: in vivo; conditions: carp, water; concentration at which 1/2 of the test fishes were killed within 48 hours; read-out: Fish Toxicity, TLm48
Description: A water tank having a width of 60 cm, a length of 30 cm and a height of 40 cm was filled with water, and 10 yearling carps having a body length of about 5 cm were set free in the tank and adapted to the environment in the tank. A test compound was applied so that the concentration in water was 10, 1 or 0.1 ppm. After 48 hours, the numbers of killed and living carps were counted and the influences on the fishes were examined.

tobacco cutworm [5] = assay: Test 2: Tobacco Cutworm Larva Dipping Test, mortality after 24 hours; type: in vivo; conditions: 24 h
Method in brief: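 Second- and fifth-instar larvae dipped 5 s in a water dilution of an emulsifiable concentrate at 100 or 20 ppm, blotted, then held on artificial diet at 25° C. Dead and living larvae counted after 24 hours; mortality averaged over three cups.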

German cockroach = assay: Test 7: Effect on German Cockroach; type: in vivo; conditions: Blattella germanica
Method in brief: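 Petri dish floors were treated with 50 or 10 mg/m2 of compound (diluted emulsifiable concentrate) and air-dried. Ten male adult German cockroaches per dish were held at 25° C. Agonized and dead insects were counted after 24 hours, averaging two dishes.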

[6] = 20 ppm, sensitive female adults, 24 hours
[7] = 100 ppm, sensitive female adults, 24 hours
[8] = 20 ppm, third-instar larvae, 24 hours, read-out: Mortality (%)
[9] = 100 ppm, third-instar larvae, 24 hours, read-out: Mortality (%)
[10] = read-out: Motality (%), Fifth-Instar Larvae
[11] = read-out: Motality (%), Second-Instar Larvae
[12] = 10 mg/m^2, male adults, agonized and killed after 24 hours, read-out: Mortality (%)
[13] = 50 mg/m^2, male adults, agonized and killed after 24 hours, read-out: Mortality (%)

| SMILES | mortality at 20 ppm [1] [%] | mortality at 100 ppm [1] [%] | mortality at 20 ppm [2, 6] [%] | mortality at 100 ppm [2, 7] [%] | LD50 at 168 h [3] [mg/kg] | mortality at 20 ppm (tobacco cutworm [4]) [%] | mortality at 100 ppm (tobacco cutworm [4]) [%] | mortality at 20 ppm (diamond back moth; [8]) [%] | mortality at 100 ppm (diamond back moth; [9]) [%] | mortality at 100 ppm (green peach aphid) [%] | LC50 at 48 h (Test 8: Fish Toxicity) [µg/mL] | mortality at 10 mg/m2 (German cockroach; [12]) [%] | mortality at 50 mg/m2 (German cockroach; [13]) [%] | also measured |
| --- | --- | --- | --- | --- | --- | --- | --- | --- | --- | --- | --- | --- | --- | --- |
| CCC(C)(COCc1cccc(Oc2ccc(Br)cc2)c1)c1ccc(F)cc1 (centres unmarked) [Compound 16, 3-(4-bromophenoxy)benzyl 2-(4-fluorophenyl)-2-ethylpropyl ether] | 100 | 100 | 90 | 100 | > 500 | – | – | – | – | – | – | – | – | mortality at 100 ppm (two-spotted spider mite): 90% |
| CCCCCOc1ccc(C(C)(C)COCc2cccc(Oc3ccccc3)c2)cc1 [Compound 62, 3-Phenoxybenzyl 2-[4-(n-pentyloxy)phenyl]-2-methylpropyl ether] | – | – | – | – | > 500 | 80 | 100 | 50 | 100 | 80 to 95 | > 1 | – | – | – |
| CCOc1ccc(C(C)(C)COCc2cccc(Oc3ccccc3)c2)cc1 [Compound 55, 3-Phenoxybenzyl 2-(4-ethoxyphenyl)-2-methylpropyl ether] | 100 | 100 | – | – | > 500 | 100 | 100 | – | – | > 95 | > 0.1 | – | – | mortality at 20 ppm (tobacco cutworm [5]; [10]): 100%; mortality at 100 ppm (tobacco cutworm [5]; [10]): 100%; mortality at 20 ppm (tobacco cutworm [5]; [11]): 100%; mortality at 100 ppm (tobacco cutworm [5]; [11]): 100%; mortality at 20 ppm ([2]; 24 h): 100%; mortality at 100 ppm ([2]; 24 h): 100%; mortality at 20 ppm (diamond back moth; 24 h): 100%; mortality at 100 ppm (diamond back moth; 24 h): 100%; mortality at 10 mg/m2 (German cockroach; 24 h): 100%; mortality at 50 mg/m2 (German cockroach; 24 h): 100% |
| CC(C)(COCc1coc(Cc2ccccc2)c1)c1ccc(Cl)cc1 [Compound 12, 5-Benzyl-3-furylmethyl 2-(4-chlorophenyl)-2-methylpropyl ether] | – | – | – | – | > 500 | – | – | – | – | 80 to 95 | > 10 | – | – | – |
| CSc1ccc(C(C)(C)COCc2cccc(Oc3ccccc3)c2)cc1 [Compound 24, 3-Phenoxybenzyl 2-(4-methylthiophenyl)-2-methylpropyl ether] | 70 | 100 | 40 | 100 | > 500 | – | – | – | – | > 95 | > 10 | – | – | – |
| CC(C)(COCc1cccc(Oc2ccccc2F)c1)c1ccc(Cl)cc1 [Compound 14] | 100 | 100 | 100 | 100 | > 500 | 100 | 100 | 100 | 100 | > 95 | – | 100 | 100 | – |
| CC(C)(CSCc1cccc(Oc2ccc(F)cc2)c1)c1ccc(Cl)cc1 [Compound 9] | 90 | 100 | 70 | 100 | > 500 | 90 | 100 | 95 | 100 | > 95 | – | 100 | 100 | – |
| Cc1ccc(C(C)(C)COCc2cccc(Oc3ccccc3)c2)cc1Cl [Compound 73] | – | – | – | – | > 500 | 100 | 100 | 90 | 100 | > 95 | > 10 | 100 | 100 | – |
| CC(C)(COCc1cccc(Oc2ccccc2)c1)c1cc(Cl)cc(Cl)c1 [Compound 56, 3-Phenoxybenzyl 2-(3,5-dichlorophenyl)-2-methylpropyl ether] | 100 | 100 | 90 | 100 | > 500 | – | – | – | – | – | – | – | – | mortality at 100 ppm (two-spotted spider mite): 80% |
| CC(C)(COCc1cccc(Sc2ccccc2)c1)c1ccc(Cl)cc1 [Compound 15, 3-Phenylthiobenzyl 2-(4-chlorophenyl)-2-methylpropyl ether] | 90 | 100 | 70 | 100 | > 500 | – | – | – | – | 80 to 95 | > 10 | – | – | – |
| CCC(C)(COCc1cccc(Oc2cccc(Cl)c2)c1)c1cccc(C)c1 (centres unmarked) [Compound 29] | – | – | – | – | > 500 | – | – | – | – | 80 to 95 | > 10 | – | – | – |
| COc1ccc(Oc2cccc(COCC(C)(C)c3ccc(SC)cc3)c2)cc1 [Compound 8, 3-(4-Methoxyphenoxy)benzyl 2-(4-methylthiophenyl)-2-methylpropyl ether] | – | – | – | – | > 500 | – | – | – | – | 80 to 95 | > 10 | – | – | – |
| COP(=O)(OC)OC=C(Cl)Cl [(g), O,O-dimethyl-O-(2,2-dichlorovinyl)phosphate, reference compound] | – | – | – | – | – | – | – | – | – | < 50 | – | – | – | mortality at 20 ppm (tobacco cutworm [5]; [10]): 10%; mortality at 100 ppm (tobacco cutworm [5]; [10]): 30%; mortality at 20 ppm (tobacco cutworm [5]; [11]): 20%; mortality at 100 ppm (tobacco cutworm [5]; [11]): 50%; mortality at 20 ppm (diamond back moth; 24 h): 0%; mortality at 100 ppm (diamond back moth; 24 h): 60%; mortality at 10 mg/m2 (German cockroach; 24 h): 40%; mortality at 50 mg/m2 (German cockroach; 24 h): 100% |
| CCOc1ccc(C(C)(C)COCc2cccc(Oc3ccccc3)c2)cc1OCC [Compound 93, 3-Phenoxybenzyl 2-(3,4-diethoxyphenyl)-2-methylpropyl ether] | 100 | 100 | 75 | 100 | > 500 | 100 | 100 | – | – | > 95 | – | 100 | 100 | – |
| CCC(C)(COCc1cccc(Oc2ccccc2)c1)c1ccc(C)cc1 (centres unmarked) [Compound 53, 3-Phenoxybenzyl 2-(4-methylphenyl)-2-ethylpropyl ether] | 100 | 100 | 80 | 100 | > 500 | – | – | 100 | 100 | 80 to 95 | > 10 | – | – | – |
| CCC(C)(COCc1cccc(Oc2ccccc2)c1)c1ccc(Cl)c(Cl)c1 (centres unmarked) [Compound 52, 3-Phenoxybenzyl 2-(3,4-dichlorophenyl)-2-ethylpropyl ether] | 90 | 100 | 90 | 100 | > 500 | – | – | 90 | 100 | > 95 | > 10 | 90 | 100 | – |

— US4570005A, “Process for the preparation of 2-arylpropyl ether or thioether derivatives” (priority 1980, dated 1986)
